The values below come from patent US20240199618A1, “NOVEL N-ACYL-[3-SUBSTITUTED]-[8-SUBSTITUTED]-5,6-DIHYDRO-[1,2,4]TRIAZOLO[4,3-a]PYRAZINES AS SELECTIVE NK-3 RECEPTOR ANTAGONISTS, PHARMACEUTICAL COMPOSITION, METHODS FOR USE IN NK-3 RECEPTOR-MEDIATED DISORDERS” (Ogeda SA, priority 2013, published 2024).

Each structure is given as a SMILES string. Read-outs that look alike come from different tables or passages of the source.

By IC50 is commonly meant the concentration needed to halve the response being measured. By Ki is commonly meant the equilibrium dissociation constant of an inhibitor or competing ligand from its target.

Data set [1] addresses T1, human NK-3 receptor (Homo sapiens (Human), UniProt P29371). Briefly: Aequorin functional assay with human NK-3 receptor (antagonist testing vs NKA). It is filed as cell-based. To be noted: CHO cells, NKA at EC80 (3 nM); read-out: Functional assay: Aequorin assay with human NK-3 receptor hNK-3-AEQ (antagonist IC50). In outline: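 CHO cells co-expressing human NK-3 receptor and apoaequorin were pre-incubated 3 min with compound, then challenged with NKA at EC80 (3 nM). Coelenterazine-dependent luminescence was integrated over 90 s, and antagonism was derived from concentration-dependent inhibition of the calcium response.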

The target of data set [2] is T1, human NK-3 receptor. Briefly: 3H-SB222200 binding competition assay with human NK-3 receptor. In outline: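 Membranes from CHO cells stably expressing the receptor were incubated with 5 nM 3H-SB222200 and varying compound concentrations in HEPES 25 mM/NaCl 0.1 M/CaCl2 1 mM/MgCl2 5 mM/BSA 0.5%/saponin 10 μg/ml, pH 7.4. Bound radioligand was quantified as membrane-associated radioactivity after filtration.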

Data set [3] addresses human NK-1 receptor (Homo sapiens (Human), UniProt P25103). Briefly: Selectivity assay: [3H] substance P binding, human NK-1 receptor. To be noted: 2 nM [3H] substance P, CHO membranes; read-out: hNK-1 (Ki). In outline: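 Competition binding on membranes from CHO cells expressing human NK-1 receptor, using 2 nM [3H] substance P in 50 mM Tris/5 mM MnCl2/150 mM NaCl/0.1% BSA, pH 7.4, with increasing compound concentrations. Incubated 60 min at 25 °C; bound radioactivity measured after filtration.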

Data set [4] addresses human NK-2 receptor (Homo sapiens (Human), UniProt P21452). Briefly: Selectivity assay: [125I]-Neurokinin A binding, human NK-2 receptor. To be noted: 0.1 nM [125I]-Neurokinin A, CHO membranes; read-out: hNK-2 (Ki). How it is done: The affinity of compounds of the invention for the NK-2 receptor was evaluated in CHO recombinant cells which express the human NK-2 receptor. Membrane suspensions were prepared from these cells. […] Binding assays were performed in a 25 mM HEPES/1 mM CaCl2)/5 mM MgCl2/0.5% BSA/10 μg/ml saponin, at pH 7.4. […] The radioactivity retained on the filters was measured by using the TopCount-NXT reader (Packard).

Data set [5] relates to plasma protein. Briefly: Determination of plasma protein binding (equilibrium dialysis, RED). It counts as in vitro ADME. As to conditions: 4 hours at 37° C.
Data set [6] deals with circulating levels of luteinizing hormone (LH). Briefly: Castrated male rat model, circulating luteinizing hormone (LH). It is filed as in vivo. As to conditions: single oral dose less than or equal to 30 mg/kg, p<0.05. How it is done: Castrated Male Rat Model to Assess the Effect of Compound of Invention on Circulating Levels of Luteinizing Hormone (LH)
The effect of compounds of the invention to inhibit luteinizing hormone (LH) secretion is determined by the following biological studies.
In humans and rodents, castration is well-precedented to permit heightened, persistent GnRH signaling and consequent elevation of circulating LH. Thus, a castrated rat model is used to provide a broad index for measurement of LH inhibition as a marker of test compound inhibition of the GnRH signaling pathway.
Castrated adult male Sprague-Dawley (SD) rats (150-175 g,) were purchased from Janvier (St Berthevin, France). All animals were housed 2 per cage in a temperature-controlled room (22±2° C.) and 50±5% relative humidity with a 12 hour/12 hour light/dark cycles (lights off at […]). The animals were allowed 3 weeks of postoperative recovery prior to study. Animals were handled on a daily basis. Standard diet and tap water were provided ad libitum. Animal cage litters were changed once a week. On the study day, animals were acclimated to the procedure room for a period of one hour prior to the initiation of the experiment.
Compounds of the invention were formulated in 0.5% methyl cellulose.
After basal sampling (TO) a single dose of compounds of the invention or vehicle was administrated orally to rats. Blood samples were then collected at several time points post dosing (45, 90, 150, 300 and 420 minutes). Blood samples were obtained via tail vein bleed, drawn into EDTA-containing tubes and centrifuged immediately. Plasma samples were collected and stored in a −80° C. freezer until assayed. Serum LH levels were determined using radioimmunoassay kit from RIAZEN—Rat L H, Zentech (Liege, Belgium). Baseline was defined as the initial basal blood sample.

[7] abbreviates: Table 2, 5 nM 3H-SB222200, CHO membranes, read-out: Competitive binding assay with human NK-3 receptor hNK-3 (Ki).
Setting [8] is: Table 3 (selectivity table), read-out: hNK-3 (Ki).

T1 sequence (P29371 whole entry): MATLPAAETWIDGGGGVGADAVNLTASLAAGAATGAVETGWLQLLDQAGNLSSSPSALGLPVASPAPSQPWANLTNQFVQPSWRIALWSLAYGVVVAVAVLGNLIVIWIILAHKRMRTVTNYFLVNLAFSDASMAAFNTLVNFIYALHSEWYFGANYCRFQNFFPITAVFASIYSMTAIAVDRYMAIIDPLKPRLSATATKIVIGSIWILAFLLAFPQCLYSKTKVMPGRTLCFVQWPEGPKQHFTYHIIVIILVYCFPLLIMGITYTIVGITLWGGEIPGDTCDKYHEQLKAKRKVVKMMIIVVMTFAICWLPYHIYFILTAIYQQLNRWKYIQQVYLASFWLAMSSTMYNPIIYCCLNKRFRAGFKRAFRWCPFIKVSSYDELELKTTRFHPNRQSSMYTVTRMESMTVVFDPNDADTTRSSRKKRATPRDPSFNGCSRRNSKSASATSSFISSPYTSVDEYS
Chain of human NK-1 receptor (P25103 whole entry): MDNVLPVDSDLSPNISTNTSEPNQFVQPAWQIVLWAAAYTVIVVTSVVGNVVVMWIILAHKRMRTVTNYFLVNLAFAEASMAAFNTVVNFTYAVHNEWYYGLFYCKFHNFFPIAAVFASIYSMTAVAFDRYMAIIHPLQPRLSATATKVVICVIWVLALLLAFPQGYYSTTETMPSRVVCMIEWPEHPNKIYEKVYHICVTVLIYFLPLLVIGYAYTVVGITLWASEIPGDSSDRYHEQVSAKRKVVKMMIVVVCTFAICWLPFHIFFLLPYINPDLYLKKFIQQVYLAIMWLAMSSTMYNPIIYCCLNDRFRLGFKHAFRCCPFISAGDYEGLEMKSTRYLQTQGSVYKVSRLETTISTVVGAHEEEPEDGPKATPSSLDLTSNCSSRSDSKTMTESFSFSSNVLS
Chain of human NK-2 receptor (P21452 whole entry): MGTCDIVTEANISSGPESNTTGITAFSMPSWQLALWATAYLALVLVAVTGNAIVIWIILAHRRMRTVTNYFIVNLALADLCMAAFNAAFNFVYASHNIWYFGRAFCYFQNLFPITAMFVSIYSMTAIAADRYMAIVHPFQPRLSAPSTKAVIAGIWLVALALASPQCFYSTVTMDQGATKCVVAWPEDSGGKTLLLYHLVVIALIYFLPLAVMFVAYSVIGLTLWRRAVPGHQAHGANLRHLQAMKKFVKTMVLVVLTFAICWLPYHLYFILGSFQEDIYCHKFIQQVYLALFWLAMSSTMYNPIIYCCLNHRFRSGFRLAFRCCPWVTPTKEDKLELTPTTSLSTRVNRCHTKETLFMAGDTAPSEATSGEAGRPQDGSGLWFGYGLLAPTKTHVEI

In the case of `Cc1nsc(-c2nnc3n2CCN(C(=O)c2ccc(Cl)c(Cl)c2)[C@@H]3C)n1` [Compound 1, (R)-(3,4-dichlorophenyl)(8-methyl-3-(3-methyl-1,2,4-thiadiazol-5-yl)-5,6-dihydro-[1,2,4]triazolo[4,3-a]pyrazin-7(8H)-yl)methanone], in data set [1], the IC50 came to 0.016 µM. Further, the Ki in data set [2] (setting [7]) was 0.011 µM; in data set [2] (setting [8]), 0.011 µM; in data set [3], 10.3 µM; in data set [4] it was 7.5 µM. For the same compound, in data set [5], the “Exposure (% rPPB), bound drug fraction to plasma protein” value (“Exposure (% rPPB), bound drug fraction” below) is 67%. Moreover, the “circulating LH levels” value in data set [6] is given as “significantly suppressed”.

As for `CCc1nsc(-c2nnc3n2CCN(C(=O)c2ccc(F)cc2)[C@@H]3C)n1` [Compound 2, (R)-(3-(3-ethyl-1,2,4-thiadiazol-5-yl)-8-methyl-5,6-dihydro-[1,2,4]triazolo[4,3-a]pyrazin-7(8H)-yl)(4-fluorophenyl)methanone], the IC50 in data set [1] was 0.012 µM. Besides, the Ki was 0.015 µM in data set [2] (setting [7]), 0.015 µM in data set [2] (setting [8]), 23.8 µM in data set [3] and over 30 µM in data set [4]. For the same compound, in data set [5], the “Exposure (% rPPB), bound drug fraction” value was 47%. Besides, the “circulating LH levels” value in data set [6] is recorded as “significantly suppressed”.

Consider `Cc1nsc(-c2nnc3n2CCN(C(=O)c2ccc(Cl)c(F)c2)[C@@H]3C)n1` [Compound 4, (R)-(4-chloro-3-fluorophenyl)(8-methyl-3-(3-methyl-1,2,4-thiadiazol-5-yl)-5,6-dihydro-[1,2,4]triazolo[4,3-a]pyrazin-7(8H)-yl)methanone], for which the IC50 in data set [1] is 0.019 µM. The Ki in data set [2] (setting [7]) came out at 0.02 µM; in data set [2] (setting [8]) it was 0.02 µM; in data set [3], 19.9 µM; in data set [4], 23 µM. In addition, in data set [5], the “Exposure (% rPPB), bound drug fraction” value is reported as 40%. In addition, the “circulating LH levels” value in data set [6] was “significantly suppressed”.

Consider `Cc1nsc(-c2nnc3n2CCN(C(=O)c2ccc(F)c(F)c2F)[C@@H]3C)n1` [Compound 8, (R)-(8-methyl-3-(3-methyl-1,2,4-thiadiazol-5-yl)-5,6-dihydro-[1,2,4]triazolo[4,3-a]pyrazin-7(8H)-yl)(2,3,4-trifluorophenyl)methanone], for which the IC50 in data set [1] was determined as 0.033 µM. Moreover, the Ki in data set [2] (setting [7]) is 0.026 µM; in data set [2] (setting [8]), 0.026 µM; in data set [3], over 30 µM; in data set [4] it was over 30 µM. Further, the “Exposure (% rPPB), bound drug fraction” value in data set [5] came to 29%. Further, the “circulating LH levels” value in data set [6] is listed as “significantly suppressed”.

With `Cc1nsc(-c2nnc3n2CCN(C(=O)c2ccc(F)c(F)c2)[C@@H]3C)n1` [Compound 9, (R)-(3,4-difluorophenyl)(8-methyl-3-(3-methyl-1,2,4-thiadiazol-5-yl)-5,6-dihydro-[1,2,4]triazolo[4,3-a]pyrazin-7(8H)-yl)methanone], the IC50 in data set [1] was found to be 0.021 µM. Further, the Ki in data set [2] (setting [7]) was 0.03 µM; in data set [2] (setting [8]) it was 0.03 µM; in data set [3] it was over 30 µM; in data set [4], over 30 µM. The “Exposure (% rPPB), bound drug fraction” value in data set [5] is on record as 22%. Moreover, in data set [6], the “circulating LH levels” value is given as “significantly suppressed”.

Turning to `CCc1noc(-c2nnc3n2CCN(C(=O)c2ccc(F)cc2)[C@@H]3C)n1` [Compound 13, (R)-(3-(3-ethyl-1,2,4-oxadiazol-5-yl)-8-methyl-5,6-dihydro-[1,2,4]triazolo[4,3-a]pyrazin-7(8H)-yl)(4-fluorophenyl)methanone], the concentration for half-maximal inhibition (IC50) in data set [1] is 0.044 µM. For the same compound, the inhibitory constant (Ki) in data set [2] (setting [7]) was 0.04 µM; in data set [2] (setting [8]) it was 0.04 µM; in data set [3] it was over 30 µM; in data set [4] it was over 30 µM. Moreover, the “Exposure (% rPPB), bound drug fraction” value in data set [5] came to 37%. Also, the “circulating LH levels” value in data set [6] is “significantly suppressed”.

Regarding `Cc1nsc(-c2nnc3n2CCN(C(=O)c2ccccc2)[C@@H]3C)n1` [Compound 20, (R)-(8-methyl-3-(3-methyl-1,2,4-thiadiazol-5-yl)-5,6-dihydro-[1,2,4]triazolo[4,3-a]pyrazin-7(8H)-yl)(phenyl)methanone], the IC50 in data set [1] worked out at 0.093 µM. Also, the Ki in data set [2] (setting [7]) is 0.06 µM; in data set [2] (setting [8]) it was 0.06 µM; in data set [3], over 30 µM; in data set [4], over 30 µM. In addition, the “circulating LH levels” value in data set [6] was “significantly suppressed”.

For `CCc1noc(-c2nnc3n2CCN(C(=O)c2ccc(-c4cccs4)cc2)[C@@H]3C)n1` [Compound 30, (R)-(3-(3-ethyl-1,2,4-oxadiazol-5-yl)-8-methyl-5,6-dihydro-[1,2,4]triazolo[4,3-a]pyrazin-7(8H)-yl)(4-(thiophen-2-yl)phenyl)methanone], the IC50 in data set [1] was 0.005 µM. Also, the Ki in data set [2] (setting [7]) was found to be 0.007 µM; in data set [2] (setting [8]), 0.007 µM; in data set [3], 40 µM. Further, the “Exposure (% rPPB), bound drug fraction” value in data set [5] worked out at 94%. Also, in data set [6], the “circulating LH levels” value is listed as “significantly suppressed”.
